Results: paper PMC4822341 (Cell Discovery, 2015)
Values joined by “and” are separate entries in the source; they are usually repeats but may differ in a detail not shown here. Equal values may be shown once.

What was measured:
RAW264.7 cells = experiment: Gene expression (microarray and quantitative PCR) in LPS-stimulated RAW264.7 cells; format: cell-based, mouse; details: RAW264.7, LPS, steroid 100 nM
Description: Mouse macrophage RAW264.7 cells were grown in 6-well plates to reach 80% confluence. The cells were pretreated with different steroids at 100 nM 1 h before overnight induction of inflammation by 1 μg ml^–1 LPS. Total RNA was isolated using a Qiagen mini RNA extraction kit (Valencia, CA, USA). Complementary DNA was synthesized from total RNA with an Invitrogen Superscript cDNA synthesis kit (Carlsbad, CA, USA). Target genes were quantified with a Power SYBR Green Real-Time PCR kit (Carlsbad, CA, USA) (ABI) in a StepOnePlus real-time PCR instrument (Applied Biosystems, Carlsbad, CA, USA). In every case, GAPDH (glyceraldehyde-3-phosphate dehydrogenase) was used as an internal control and data were analyzed by the ΔΔCt method. The specificity of target primers was tested both in a dissociation (melting) curve (Supplementary Figure S4) and against a water control. Primer sequence information is included in Supplementary Figure S4.
RAW264.7 cells were treated with designated steroids at 100 nM 1 h before overnight LPS stimulation of inflammation. Each treatment was duplicated. The following day, RNA samples were isolated using a Qiagen mini RNA extraction kit and applied to the Agilent Whole Mouse Genome 8x60K gene expression platform. Data were analyzed by the limma package in R program. Heat maps were generated by the HeatMap 2 package. Pathway analysis was done via DAVID Bioinformatics Resources 6.7 (NIAID) and Venn diagrams were generated by BioVenn.

GR [1] = target: T1, GR (Homo sapiens, UniProt P04150); experiment: AP-1-Luc repression reporter assay in AD293 cells; format: cell-based; details: AP-1 reporter, PMA 0.6 ng ml^-1
T1 construct: expressed in transfected cells; host or cells: AD293
T1 sequence (P04150 1-777): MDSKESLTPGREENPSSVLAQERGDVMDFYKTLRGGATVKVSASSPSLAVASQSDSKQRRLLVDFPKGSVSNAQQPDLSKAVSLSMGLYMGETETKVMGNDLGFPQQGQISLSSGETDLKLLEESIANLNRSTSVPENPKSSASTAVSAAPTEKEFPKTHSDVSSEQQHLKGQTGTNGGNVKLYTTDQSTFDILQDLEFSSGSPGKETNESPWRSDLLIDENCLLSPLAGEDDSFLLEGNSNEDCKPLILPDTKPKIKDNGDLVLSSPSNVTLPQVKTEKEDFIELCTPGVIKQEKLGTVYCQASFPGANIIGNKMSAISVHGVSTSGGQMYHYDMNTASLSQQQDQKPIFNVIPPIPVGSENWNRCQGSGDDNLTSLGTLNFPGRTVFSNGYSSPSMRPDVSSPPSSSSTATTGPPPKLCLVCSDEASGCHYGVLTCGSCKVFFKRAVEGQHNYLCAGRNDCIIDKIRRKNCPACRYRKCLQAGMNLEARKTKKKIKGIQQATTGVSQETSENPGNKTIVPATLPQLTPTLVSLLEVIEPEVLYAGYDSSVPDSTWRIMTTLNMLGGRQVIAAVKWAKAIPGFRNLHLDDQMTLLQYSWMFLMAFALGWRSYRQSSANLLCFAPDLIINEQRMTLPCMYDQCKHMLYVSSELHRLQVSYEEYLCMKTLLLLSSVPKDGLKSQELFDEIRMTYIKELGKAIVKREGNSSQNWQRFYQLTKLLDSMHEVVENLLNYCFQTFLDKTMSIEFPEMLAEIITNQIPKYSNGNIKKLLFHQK
Description: Similar to previous reports, for induction 100 ng pHHLuc (MMTV-Luc) plasmid, 0.1 ng pRShGR together with 5 ng phRGtkRenilla were transfected by X-tremeGENE 9 (Roche) into AD293 cells per well in 24-well plate. For transrepression, 10 ng AP-1-Luc or 10ng pNF-κB-luc, 100 ng pRShGR and 5 ng phRGtkRenilla were transfected into AD293 cells per well. We used the same transfection protocol for the MR and PR assays, except of the use of 0.1 ng MR or PR plasmid to substitute GR. One day after transfection, for induction, cells were directly treated by steroids for 16 h; for repression, cells were treated with either PMA at 0.6 ng ml^–1 (for AP-1 reporter) or TNFα at 2 ng ml^–1 (for NF-κB reporter), together with various steroids. Cells were collected by addition of 1× Passive Lysis Buffer (Promega, Madison, WI, USA), and luciferase activity was assayed by the Dual-Glo Luciferase system (Promega). Data were plotted as firefly luciferase activity normalized to Renilla luciferase activity in Relative Luciferase Units.

OVA-induced asthma = experiment: OVA-induced mouse asthma model; format: in vivo, Balb/c mice; details: for % repression of AHR: ACH challenge 4 mg kg^-1
Description: As described before, 7–9-week-old female Balb/c mice (Taconic) were sensitized on days 0, 7 and 14 by i.p. injection of 50 μg OVA/1 mg alum in a total of 200 μl saline. Control mice received an equal volume of alum only. Mice were lightly anesthetized by isoflurane inhalation and challenged with intranasal OVA (100 μg in 30 μl saline) or saline on days 21–23, and were i.p. injected with different steroids. Twenty-four hours after the last challenge and treatment, pulmonary resistance was measured in response to a range of concentrations of intravenous acetylcholine using the forced oscillation technique with the FlexiVent system (SCIREQ) as previously described. Serum samples were analyzed for OVA-specific IgE using an ELISA (BD Biosciences, clone R35-118). Total and differential cell counts were determined by hemocytometer and by light microscopic evaluation of more than 300 cells per slide as previously described. After lavage, lungs were inflated with 10% buffered formalin to 25 cm H2O and transferred to 10% buffered formalin. Sections (5 μm) were stained with H&E for semi-quantitative assessment of inflammation and PAS for evaluation of mucus production. To quantify inflammation, H&E-stained lung sections were de-identified for blinding and scored for peribronchial and perivascular inflammatory cell infiltration: grade 0, no infiltration; grade 1, <25% of examined area; grade 2, 25–50%; grade 3, 51–75%; and grade 4, >75%. To quantify goblet cell hyperplasia, PAS stained lung sections were de-identified for blinding and scored for the percentage of PAS positive cells among airway epithelial cells: grade 0: none; grade 1 <25% of airway epithelial cells; grade 2, 25–50%; grade 3, 51–75%; and grade 4, >75%.

GR [2] = target: T1, GR; experiment: In vitro H3-Dex competition GR ligand-binding assay; details: H3-DEX 15 nM, GR cytosol
From the text: The in vitro GR binding assay is similar to the one described previously. […] Data were plotted as a standard competition curve by GraphPad Prism 5.

CON(C)C(=O)C1(OC(=O)c2ccco2)C(C)CC2C3CC(F)C4=Cc5c(cnn5-c5ccccc5)CC4(C)C3(F)C(O)CC21C (stereo not drawn) [VSGC12]
inhibition activity of pro-inflammatory cytokines (microarray, normalized to DEX) (RAW264.7 cells): much stronger inhibition activity than DEX | repression activity on pro-inflammatory cytokines by quantitative PCR (RAW264.7 cells): much higher repression activity on IL-1β, IL-6 and IL-33 than FF and DEX | IC50 (GR [1]): 0.02 nM | % repression of total differentiated cells (OVA-induced asthma; 0.0625 mg/kg): 37% | % repression of AHR (OVA-induced asthma; 0.0625 mg/kg): 50% | % repression of total differentiated cells (OVA-induced asthma; 0.125 mg/kg): 60% | histology score (hematoxylin and eosin and PAS staining) (OVA-induced asthma; 0.25 mg kg^-1): much lower score than 0.25 mg kg^–1 FF in both hematoxylin and eosin and PAS staining | % repression of total differentiated cells (OVA-induced asthma; 0.25 mg/kg): 88% | % repression of AHR (OVA-induced asthma; 0.25 mg/kg): > 95% and 95% | infiltration of immune responsive cells into the lungs (total and differential cell count) (OVA-induced asthma; 1 mg kg^-1 i.p.): strongly repressed the infiltration of immune responsive cells into the lungs | repression of airway hyper-responsiveness (AHR) (OVA-induced asthma; 1 mg kg^-1 i.p., Balb/c mice): robustly repressed AHR to the basal level | histology score, PAS staining (OVA-induced asthma; 1 mg kg^-1 i.p., grade 0-4): 0.25 | histology score, hematoxylin and eosin staining (OVA-induced asthma; 1 mg kg^-1 i.p., grade 0-4): almost zero | % repression of AHR (OVA-induced asthma; 1 mg/kg, OVA+DMSO 0, saline 100): 98% | % repression of total differentiated cells (OVA-induced asthma; 1 mg/kg, saline 100, OVA+DMSO 0): 99% | minimal dose to effectively repress AHR (minimal effective dose) (OVA-induced asthma; AHR repression >50%, i.p.): 0.0625 mg kg^–1 | OVA-IgE levels (OVA-induced asthma; lower doses (0.25, 0.125, 0.0625 mg kg^-1)): unexpectedly higher than the vehicle control | IC50 (GR [2]): 6.1 nM
